target: T1, P-selectin/PSGL-1 interaction (Homo sapiens, UniProt P16109); assay: Biacore P-Selectin/PSGL-1 Inhibition Assay (surface plasmon resonance); assay type: binding; settings: 250 uM test compound, 500 nM P.LE, immobilized PSGL-1 19ek, 10% DMSO, pH 7.4
T1 construct: comprised of the lectin and epidermal growth factor-like (EGF) domains expressed in CHO cells; made in house; host or cells: CHO cells (P-LE)
T1 sequence (P16109 42-198): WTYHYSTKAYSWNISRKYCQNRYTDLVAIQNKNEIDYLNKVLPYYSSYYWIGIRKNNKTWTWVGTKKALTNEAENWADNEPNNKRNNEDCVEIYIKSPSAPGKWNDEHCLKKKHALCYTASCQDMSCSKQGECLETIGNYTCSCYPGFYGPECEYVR
Experimental: Surface plasmon resonance assays were performed on a Biacore 3000 instrument (Biacore Inc. Piscataway, N.J.) at 25° C. at a flow rate of 30 μL/minute and each assay consisted of a 60-second equilibration, a 60-μL sample injection (kinject), and a 300-second dissociation.
A purified, monomeric, truncated form of human PSGL-1, “19ek”, that contained all the necessary P-selectin binding determinants (see Goetz, et al., J. Cell Biol., 1997, 137: 509-519; and Sako, et al., Cell, 1995, 83: 323-331) was biotinylated via amine chemistry (Sulfo-NHS-LC-Biotin, Peirce) at a unique C-terminal lysine residue (see Somers, et al., Cell, 2000, 103: 467-479) and immobilized on a Biacore SA sensor chip (Biacore Inc.), using an HBS-EP buffer (Biacore Inc.), and the target 600-700 RU. The coated chip was re-equilibrated with an HBS-P buffer (Biacore Inc.) to which 1 mM CaCl2 and 1 mM MgCl2 (both from Fisher) were added to ensure sufficient calcium for the calcium-dependent interaction between the receptor and the ligand.
Test compounds were incubated for 1 hour in a 1.1× Biacore assay buffer. Each solution was centrifuged through a 0.2 µm filter, using a 96-well plate format (Millipore). Glycyrrhizin tri-sodium salt (TCI) was prepared as a positive control in parallel with the test compounds, in the same manner described above.
A soluble recombinant truncated form of human P-selectin, P-LE, comprised of the lectin and epidermal growth factor-like (EGF) domains expressed in CHO cells (see Somers, et al., Cell, 2000, 103: 467-479) was added to each filtered test compound solution. Final concentrations of reagents were 500 nM P.LE, 250 or 500 μM test compound (depending on structure) or 1 mM glycyrrhizin, 10% DMSO, and 1× Biacore buffer ([…], 150 mM NaCl, 1 mM CaCl2, and 1 mM MgCl2 (all reagents from Fisher)), with a pH of 7.4. Compounds active at 250 μM were titrated to further define activity. Test samples were supplied to the Biacore instrument in a 96-well plate.
The Biacore raw data file was exported as a text file to an Excel spreadsheet, where the buffer blanks bracketing the samples were averaged for each Biacore instrument flow cell (Fc), and subtracted from the averaged uninhibited P.LE samples and from all the other samples. The reference signal from Fcl (uncoated) was then subtracted from its corresponding active (coated) signal for each injection, a process known as double referencing (see Myszka, J. Mol. Recognit., 1999, 12(5): 279-284). The percent inhibition of binding was calculated by dividing the reference-subtracted inhibited signal by the reference-subtracted uninhibited signal, subtracting this value from 1, and multiplying the resulting value by 100. The replicate percent inhibition values were averaged and expressed as the mean ±standard deviation. The inter-experiment standard deviation of calculated percent inhibitions in the Biacore assay was ±5.

Point of comparison: `O=C(O)c1c(O)c(C2(c3ccccc3)CC2)nc2ccc(OC(F)(F)F)cc12` [Compound 29, 3-hydroxy-2-(1-phenylcyclopropyl)-6-(trifluoromethoxy)quinoline-4-carboxylic acid], inhibition at 250 µM 10%. Against it:
- O=C(O)c1c(O)c(C2(c3ccc(Cl)cc3)CC2)nc2c(OC(F)(F)F)cccc12 [Compound 1, 2-(1-(4-chlorophenyl)cyclopropyl)-3-hydroxy-8-(trifluoromethoxy)quinoline-4-carboxylic acid] — higher, 37%
- CCc1cccc2c(C(=O)O)c(O)c(C3(c4ccc(Cl)cc4)CC3)nc12 [Compound 2, 2-(1-(4-chlorophenyl)cyclopropyl)-8-ethyl-3-hydroxyquinoline-4-carboxylic acid] — higher, 67%
- CCC(C)c1cccc2c(C(=O)O)c(O)c(C3(c4ccc(Cl)cc4)CC3)nc12 (centres unmarked) [Compound 3, 8-sec-butyl-2-(1-(4-chlorophenyl)cyclopropyl)-3-hydroxyquinoline-4-carboxylic acid] — higher, 18%
- CC(C)(C)c1cccc2c(C(=O)O)c(O)c(C3(c4ccc(Cl)cc4)CC3)nc12 [Compound 4, 8-tert-butyl-2-(1-(4-chlorophenyl)cyclopropyl)-3-hydroxyquinoline-4-carboxylic acid] — not separable, ≤ 10%
- O=C(O)c1c(O)c(C2(c3ccc(Cl)cc3)CC2)nc2c(Cl)cccc12 [Compound 5, 8-chloro-2-(1-(4-chlorophenyl)cyclopropyl)-3-hydroxyquinoline-4-carboxylic acid] — higher, 93%
- O=C(O)c1c(O)c(C2(c3ccc(Cl)cc3)CC2)nc2c(-c3ccccc3)cccc12 [Compound 6, 2-(1-(4-chlorophenyl)cyclopropyl)-3-hydroxy-8-phenylquinoline-4-carboxylic acid] — higher, 98%
- O=C(O)c1c(O)c(C2(c3ccc(Cl)cc3)CC2)nc2c(F)cccc12 [Compound 7, 2-(1-(4-chlorophenyl)cyclopropyl)-8-fluoro-3-hydroxyquinoline-4-carboxylic acid] — not separable, ≤ 10%
- O=C(O)c1c(O)c(C2(c3ccc(Cl)cc3)CC2)nc2ccccc12 [Compound 8, 2-(1-(4-chlorophenyl)cyclopropyl)-3-hydroxyquinoline-4-carboxylic acid] — not separable, ≤ 10%
- O=C(O)c1c(O)c(C2(c3ccc(Cl)cc3)CC2)nc2c(Br)cccc12 [Compound 9, 8-bromo-2-(1-(4-chlorophenyl)cyclopropyl)-3-hydroxyquinoline-4-carboxylic acid] — higher, 46%
- Cc1cc(C)c2nc(C3(c4ccc(Cl)cc4)CC3)c(O)c(C(=O)O)c2c1 [Compound 10, 2-(1-(4-chlorophenyl)cyclopropyl)-3-hydroxy-6,8-dimethylquinoline-4-carboxylic acid] — higher, 47%
- Cc1cccc2c(C(=O)O)c(O)c(C3(c4ccc(Cl)cc4)CC3)nc12 [Compound 11, 2-(1-(4-chlorophenyl)cyclopropyl)-3-hydroxy-8-methylquinoline-4-carboxylic acid] — higher, 43%
- CCc1ccc2c(C(=O)O)c(O)c(C3(c4ccc(Cl)cc4)CC3)nc2c1 [Compound 12, 2-(1-(4-chlorophenyl)cyclopropyl)-7-ethyl-3-hydroxyquinoline-4-carboxylic acid] — higher, 13%
- Cc1ccc2c(C(=O)O)c(O)c(C3(c4ccc(Cl)cc4)CC3)nc2c1 [Compound 13, 2-(1-(4-chlorophenyl)cyclopropyl)-3-hydroxy-7-methylquinoline-4-carboxylic acid] — not separable, ≤ 10%
- CCc1cccc2c(C(=O)O)c(O)c(C3(c4ccccc4)CC3)nc12 [Compound 14, 8-ethyl-3-hydroxy-2-(1-phenylcyclopropyl)quinoline-4-carboxylic acid] — higher, 23%
- CCC(C)c1cccc2c(C(=O)O)c(O)c(C3(c4ccccc4)CC3)nc12 (centres unmarked) [Compound 15, 8-sec-butyl-3-hydroxy-2-(1-phenylcyclopropyl)quinoline-4-carboxylic acid] — higher, 63%
- O=C(O)c1c(O)c(C2(c3ccc(Cl)cc3)CC2)nc2cc(Cl)ccc12 [Compound 16, 7-chloro-2-(1-(4-chlorophenyl)cyclopropyl)-3-hydroxyquinoline-4-carboxylic acid] — higher, 28%
- O=C(O)c1c(O)c(C2(c3ccc(Cl)cc3)CC2)nc2ccc(F)cc12 [Compound 17, 2-(1-(4-chlorophenyl)cyclopropyl)-6-fluoro-3-hydroxyquinoline-4-carboxylic acid] — not separable, ≤ 10%
- O=C(O)c1c(O)c(C2(c3ccc(Cl)cc3)CC2)nc2ccc(Br)cc12 [Compound 18, 6-bromo-2-(1-(4-chlorophenyl)cyclopropyl)-3-hydroxyquinoline-4-carboxylic acid] — higher, 28%
- Cc1ccc2nc(C3(c4ccc(Cl)cc4)CC3)c(O)c(C(=O)O)c2c1 [Compound 19, 2-(1-(4-chlorophenyl)cyclopropyl)-3-hydroxy-6-methylquinoline-4-carboxylic acid] — not separable, ≤ 10%
- COc1ccc2nc(C3(c4ccc(Cl)cc4)CC3)c(O)c(C(=O)O)c2c1 [Compound 20, 2-(1-(4-chlorophenyl)cyclopropyl)-3-hydroxy-6-methoxyquinoline-4-carboxylic acid] — not separable, ≤ 10%
- O=C(O)c1c(O)c(C2(c3ccc(Cl)cc3)CC2)nc2ccc(OC(F)(F)F)cc12 [Compound 21, 2-(1-(4-chlorophenyl)cyclopropyl)-3-hydroxy-6-(trifluoromethoxy)quinoline-4-carboxylic acid] — higher, 28%
- O=C(O)c1c(O)c(C2(c3ccc(Cl)cc3)CC2)nc2ccc(Cl)cc12 [Compound 22, 6-chloro-2-(1-(4-chlorophenyl)cyclopropyl)-3-hydroxyquinoline-4-carboxylic acid] — higher, 26%
- O=C(O)c1c(O)c(C2(c3ccc(Cl)cc3)CC2)nc2ccc(O)cc12 [Compound 23, 2-(1-(4-chlorophenyl)cyclopropyl)-3,6-dihydroxyquinoline-4-carboxylic acid] — not separable, ≤ 10%
- O=C(O)c1c(O)c(C2(c3ccc(Cl)cc3)CC2)nc2ccc(C(F)(F)F)cc12 [Compound 24, 2-(1-(4-chlorophenyl)cyclopropyl)-3-hydroxy-6-(trifluoromethyl)quinoline-4-carboxylic acid] — higher, 34%
- CC(C)c1ccc2nc(C3(c4ccc(Cl)cc4)CC3)c(O)c(C(=O)O)c2c1 [Compound 25, 2-(1-(4-chlorophenyl)cyclopropyl)-3-hydroxy-6-isopropylquinoline-4-carboxylic acid] — higher, 14%
- O=C(O)c1c(O)c(C2(c3ccccc3)CC2)nc2cc(Cl)ccc12 [Compound 26, 7-chloro-3-hydroxy-2-(1-Phenylcyclopropyl)quinoline-4-carboxylic acid] — not separable, ≤ 10%
- CCc1ccc2nc(C3(c4ccccc4)CC3)c(O)c(C(=O)O)c2c1 [Compound 27, 6-ethyl-3-hydroxy-2-(1-phenylcyclopropyl)quinoline-4-carboxylic acid] — not separable, ≤ 10%
- CCc1ccc2c(C(=O)O)c(O)c(C3(c4ccccc4)CC3)nc2c1 [Compound 28, 7-ethyl-3-hydroxy-2-(1-phenylcyclopropyl)quinoline-4-carboxylic acid] — not separable, ≤ 10%
- O=C(O)c1c(O)c(C2(c3ccccc3)CC2)nc2ccc(Cl)cc12 [Compound 30, 6-chloro-3-hydroxy-2-(1-phenylcyclopropyl)quinoline-4-carboxylic acid] — not separable, ≤ 10%
- Cc1cccc2c(C(=O)O)c(O)c(C3(c4ccccc4)CC3)nc12 [Compound 31, 3-hydroxy-8-methyl-2-(1-phenylcyclopropyl)quinoline-4-carboxylic acid] — not separable, ≤ 10%
- O=C(O)c1c(O)c(C2(c3ccccc3)CC2)nc2ccc(C(F)(F)F)cc12 [Compound 32, 3-hydroxy-2-(1-phenylcyclopropyl)-6-(trifluoromethyl)quinoline-4-carboxylic acid] — not separable, ≤ 10%
